# Test results: US10111847B2, “Compounds and methods for modulating vascular injury” (The Regents of the University of California, priority 2012, dated 2018)
# Experiments:
# [1] = test system: TNF-α-stimulated VSMC; assay: U937 monocyte adhesion to TNF-α-stimulated VSMC (Maresin-1); format: cell-based, human; settings: 1-100 nM, 30 min pretreatment; TNFα 10 ng/ml 4 hr
# Protocol: MaR-1. VSMCs and ECs were seeded on a 96 well plate (20000 cells/well for VSMCs and 50000 cells/well for ECs) and after 2 days, were treated with Maresin-1 (1-100 nM) for 30 min followed by TNF-α for 4 hr and then calcein AM-labeled U937 cells were added on top of the VSMCs. After 15-minute incubation at 37 C, unbound cells were washed off with cold PBS. Fluorescence measurements (ex 494 nm, em 517 nm) of bound monocytes were taken with a plate reader. For capturing images, the assay was performed in 8-well chamber slides (Nunc Labtek) and images were taken after cold PBS wash (three times) following U937 incubation.
# FIGS. 15A-15D. Representative images of Calcein-AM labeled U937 monocytes adhered to human sv-VSMCs pretreated with vehicle (A, B) or 7S-Maresin-1 (C) or 7S-Maresin-1 and pertussis toxin (D) for 30 min, followed by TNFα at 10 ng/ml for 4 hr (B, C, D). (E) Quantitative analysis of U937 adhesion assay in human sv-VSMCs and (F) human sv-ECs (1 ng/ml TNFα used for EC cells). […] Bar graph represents net quantitative densitometry analysis. […] Expression of MCP-1 was measured by qRT-PCR, and normalized to unstimulated cells (n=3, results are mean±SEM, P<0.05 for Mar-1 (10 and 100 nM) vs TNF alone, unpaired t-test).
# [2] = test system: p65 subunit; assay: Nuclear translocation of p65 subunit in sv-VSMCs (immunofluorescence); format: cell-based, human; settings: 100 nm, 30 min; TNFα 10 ng/ml 2 hrs
# Protocol: Immunofluorescence for p65 (RelA): 15000 VSMCs or 30000 ECs were seeded on a 8-well chamber slide. Cells received 30 min of Maresin-1 pretreatment, followed by TNF-α for 2 hr. Cells were fixed in 2% paraformaldehyde, followed by permeabilization with ice-cold acetone (10 min) and 1% Triton X-100 (20 min). Cells were incubated overnight in a humidified chamber with anti-p65 antibody (Santa Cruz Biotechnology Inc.) followed by Alexa-fluor 488 tagged secondary antibody (Life Technologies) and were visualized under a fluorescent microscope.
# FIGS. 16A-16D. VSMCs were grown in chamber slides and treated with vehicle or 100 nm of 7S or 7R-Maresin-1 with/without 10 ng/ml pertussis toxin for 30 min, followed by TNFα (10 ng/ml) for 2 hrs. Cells were fixed and subsequently stained with anti-p65 (Santa Cruz Biotechnology) and secondary antibodies (Alexa-488). (A-D) Representative images of Ctrl (A), TNFα (B), 7R-Maresin-1+TNFα (C) and 7R-Maresin-1+pertussis toxin (10 ng/ml)+TNFα. (E) Mean fluorescence of nucleus and cytoplasm were quantified from all groups and the net result of the ratio of nucleus over cytoplasmic mean fluorescence is depicted in the bar graph, as a measure of relative p65 nuclear translocation. (N>=3). […]
# [3] = test system: rabbit femoral artery; assay: Rabbit femoral artery balloon injury, neointimal hyperplasia at 28 days; format: in vivo, New Zealand White Rabbits; settings: 10 nM local; 28 days after injury; vehicle 0.38±0.04; P=0.002
# Protocol: All animal experiments are performed under a protocol approved by University of California San Francisco Animal Care Committee. New Zealand White Rabbits (NZWR, Western Oregon Rabbit Company, Philomath, Oreg.) weighing 3 to 5 kg and maintained on a normal chow diet are used in all experiments. Animals are anesthetized for surgical procedures with intramuscular injection of ketamine (25 mg/kg) and xylazine (5 mg/kg), and maintained with inhalation of isoflurane. The balloon injury model is made as described by Conte et al. “Efficient repopulation of denuded rabbit arteries with autologous genetically modified endothelial cells,” Circulation. 1994; 89:2161-2169. Rabbits undergo bilateral external iliac and femoral artery injury with 2F Fogarty balloon catheter (Applied Medical Resources Corp. Rancho Santa Margarita, Calif.). After balloon injury RvD2 (10 nM, Cayman chemical, Ann Arbor, Mich.) is infused to luminal area of the right femoral artery and control vehicle (normal saline with 0.1% ethanol) is infused to the left femoral artery, and then left undisturbed for 20 minutes. For evaluation of acute effects the rabbits are euthanized at 3 days after injury by intravenous overdose of sodium Nembutal. The femoral arteries are harvested and cryosection is made for immunohistochemistry, and total RNA from treated and control tissue is isolated. […]
SMILES,monocyte adhesion (U937) to TNF-α-stimulated VSMC [1],nuclear translocation of p65 subunit in human sv-VSMCs [2],neointimal area [3]
"CC/C=C\C/C=C\C[C@H](O)\C=C/C=C/C=C/[C@@H](O)C/C=C\CCC(=O)O [7S-Maresin-1, 7S,14R-dihydroxydocosa-4Z,8E,10Z,12Z,16Z,19Z-hexaenoic acid]",dose-dependent inhibition,Inhibit,–
"CC/C=C\C[C@H](O)[C@H](O)/C=C/C=C/C=C\C=C\[C@@H](O)C/C=C\CCC(=O)O [RvD2, resolvin D2]",–,–,0.27±0.03 mm^2
